Assay results from patent US11008555B2 (The Regents of the University of California, priority 2015, dated 2021).

tested on: chromosomal GFP; test: CRISPRi GFP repression assay in E. coli; assay type: cell-based, Escherichia coli MG1655; details: ligand dose response on arC9:231, SOB media, normalized to vector control
Source text: Escherichia coli MG1655, which have chromosomally integrated constitutive GFP and RFP expression, were used for in vivo screening, fluorescence measurements, and transformation assays. Cell transformation, plasmid maintenance, and verification of transformation were done as previously described using AmpR and CmR as selectable markers. EZ-rich defined growth medium (EZ-RDM, Teknoka) was used for in vivo fluorescence assays unless otherwise noted. Super optimal broth (S.O.B) medium was used for library outgrowth and screening. The arC9 ligands used (4-hydroxytamoxifen (4-HT), nafoxidine, beta-estradiol, and diethylstilbestrol) were all ordered from Sigma and resuspended in dimethyl sulfoxide (DMSO).
For individual PDZ-construct testing, colonies were cultured from plates, PDZ-dCas9 plasmid DNA recovered, separated from the RFP guide plasmid (pgRNA-bacteria Addgene ID: 44251) via restriction digestion with BsaI and co-transformed with a guide plasmid to repress chromosomal GFP. GFP repression for each construct was then tested in triplicate in a 96-well microplate reader (Tecan M1000) at 37° C. PDZ clones were grown with appropriate antibiotics, 0.2 nM aTc, dCas9, and inducer. OD600 nm absorbance was measured for each well. GFP signal was measured, normalized for OD600 nm and compared when the cultures were approaching saturation (80% of the maximum OD600 nm) The arC9 construct was treated and assayed in the same fashion as above with induction using […]. Fold changes for the effect of different ligands were calculated by normalizing the GFP/OD600 of the arC9 construct to that of a vector control and dividing the fluorescent values without ligand by the fluorescent values with ligand treatment. For single cell analysis of arC9, cells were grown for ˜6 hours with antibiotics and inducer, washed with PBS, and assayed for GFP fluorescence using a Sony SH800 cell sorter.

Compound	effect of ligand on arC9:231 CRISPRi-based GFP repression
C[C@]12CC[C@@H]3c4ccc(O)cc4CC[C@H]3[C@@H]1CC[C@@H]2O [beta-estradiol]	increased only with ligands that encourage the ER-LBD to enter an antagonist conformation
COc1ccc2c(c1)CCC(c1ccccc1)=C2c1ccc(OCCN2CCCC2)cc1 [nafoxidine]	increased
CC/C(=C(/CC)c1ccc(O)cc1)c1ccc(O)cc1 [diethylstilbestrol]	increased only with ligands that encourage the ER-LBD to enter an antagonist conformation
4-hydroxytamoxifen [4-HT]	increased
